Measured values reported in BindingDB's records for doi:10.1016/j.bmcl.2009.04.143 (Incyte, 2009).

assay: Inhibition of HER2 extracellular domain sheddase activity in human BT474 cells after 72 hrs by ELISA

| SMILES | IC50 [nM] |
| --- | --- |
| O=C(NO)[C@H]1CC(CC(=O)N2CC[C@@H](O)C2)CC[C@@H]1C(=O)N1CCN(c2ccccc2)CC1 (mixture of isomers) [(1S,2S,5RS)-N-hydroxy-5-(2-((R)-3-hydroxypyrrolidin-1-yl)-2-oxoethyl)-2-(4-phenylpiperazine-1-carbonyl)cyclohexanecarboxamide] | 226 |
| O=C(NO)[C@H]1CC(CC(=O)N2CCOCC2)CC[C@@H]1C(=O)N1CCN(c2ccccc2)CC1 (mixture of isomers) [(1S,2S,5RS)-N-hydroxy-5-(2-morpholino-2-oxoethyl)-2-(4-phenylpiperazine-1-carbonyl)cyclohexanecarboxamide] | 208 |
| CN1CCN(C(=O)CC2CC[C@H](C(=O)N3CCN(c4ccccc4)CC3)[C@@H](C(=O)NO)C2)CC1 (mixture of isomers) [(1S,2S,5RS)-N-hydroxy-5-(2-(4-methylpiperazin-1-yl)-2-oxoethyl)-2-(4-phenylpiperazine-1-carbonyl)cyclohexanecarboxamide] | 100 |

More lines, now with the values ahead:

| IC50 [nM] | SMILES |
| --- | --- |
| 102 | CN1CC(CC(=O)N2CCCCC2)C[C@H](C(=O)NO)[C@H]1C(=O)N1CCN(c2ccccc2)CC1 (mixture of isomers) [(2S,3S,5RS)-N-hydroxy-1-methyl-5-(2-oxo-2-(piperidin-1-yl)ethyl)-2-(4-phenylpiperazine-1-carbonyl)piperidine-3-carboxamide] |
| 28 | O=C(NO)[C@H]1CC(CC(=O)N2CCCC2)CN[C@@H]1C(=O)N1CCN(c2ccccc2)CC1 (mixture of isomers) [(2S,3S,5RS)-N-hydroxy-5-(2-oxo-2-(pyrrolidin-1-yl)ethyl)-2-(4-phenylpiperazine-1-carbonyl)piperidine-3-carboxamide] |
| 100 | O=C(NO)[C@H]1CC2(CC[C@@H]1C(=O)N1CCN(c3ccccc3)CC1)CC2 [(5S,6S)-N-hydroxy-6-(4-phenylpiperazine-1-carbonyl)spiro[2.5]octane-5-carboxamide] |
